Values quoted from earlier work in patent publication US20210121480A1, “STABLE PHARMACEUTICAL COMPOSITIONS CONTAINING ESTRADIOL AND PROGESTERONE FOR ORAL ADMINISTRATION” (SLAYBACK PHARMA LLC, priority 2019, published 2021).
Converted amounts (≈) assume the structure as drawn.

Settings: reported

aqueous solubility: 7 ± 0 µg/mL (≈ 22.3 µM)
SMILES: CC(=O)[C@H]1CC[C@H]2[C@@H]3CCC4=CC(=O)CC[C@]4(C)[C@H]3CC[C@]12C [Progesterone]
